Test results: ChEMBL document CHEMBL4229437, “Polyamine-containing etoposide derivatives as poisons of human type II topoisomerases: Differential effects on topoisomerase IIα and IIβ” (Bioorg Med Chem Lett, 2018)
Calls of active or inactive are those of the source. The rule behind the calls is not given here.

Legend:
[1] = target: DNA topoisomerase 2-beta (Homo sapiens) (UniProt Q02880); assay: Inhibition of recombinant human topoisomerase-2beta expressed in Saccharomyces cerevisiae assessed as stabilization of DNA-enzyme cleavage complex at 25 uM incubated for 6 mins followed by incubation in drug-free buffer by agarose gel electrophoresis method
DNA topoisomerase 2-beta (Homo sapiens), sequence (Q02880 whole entry): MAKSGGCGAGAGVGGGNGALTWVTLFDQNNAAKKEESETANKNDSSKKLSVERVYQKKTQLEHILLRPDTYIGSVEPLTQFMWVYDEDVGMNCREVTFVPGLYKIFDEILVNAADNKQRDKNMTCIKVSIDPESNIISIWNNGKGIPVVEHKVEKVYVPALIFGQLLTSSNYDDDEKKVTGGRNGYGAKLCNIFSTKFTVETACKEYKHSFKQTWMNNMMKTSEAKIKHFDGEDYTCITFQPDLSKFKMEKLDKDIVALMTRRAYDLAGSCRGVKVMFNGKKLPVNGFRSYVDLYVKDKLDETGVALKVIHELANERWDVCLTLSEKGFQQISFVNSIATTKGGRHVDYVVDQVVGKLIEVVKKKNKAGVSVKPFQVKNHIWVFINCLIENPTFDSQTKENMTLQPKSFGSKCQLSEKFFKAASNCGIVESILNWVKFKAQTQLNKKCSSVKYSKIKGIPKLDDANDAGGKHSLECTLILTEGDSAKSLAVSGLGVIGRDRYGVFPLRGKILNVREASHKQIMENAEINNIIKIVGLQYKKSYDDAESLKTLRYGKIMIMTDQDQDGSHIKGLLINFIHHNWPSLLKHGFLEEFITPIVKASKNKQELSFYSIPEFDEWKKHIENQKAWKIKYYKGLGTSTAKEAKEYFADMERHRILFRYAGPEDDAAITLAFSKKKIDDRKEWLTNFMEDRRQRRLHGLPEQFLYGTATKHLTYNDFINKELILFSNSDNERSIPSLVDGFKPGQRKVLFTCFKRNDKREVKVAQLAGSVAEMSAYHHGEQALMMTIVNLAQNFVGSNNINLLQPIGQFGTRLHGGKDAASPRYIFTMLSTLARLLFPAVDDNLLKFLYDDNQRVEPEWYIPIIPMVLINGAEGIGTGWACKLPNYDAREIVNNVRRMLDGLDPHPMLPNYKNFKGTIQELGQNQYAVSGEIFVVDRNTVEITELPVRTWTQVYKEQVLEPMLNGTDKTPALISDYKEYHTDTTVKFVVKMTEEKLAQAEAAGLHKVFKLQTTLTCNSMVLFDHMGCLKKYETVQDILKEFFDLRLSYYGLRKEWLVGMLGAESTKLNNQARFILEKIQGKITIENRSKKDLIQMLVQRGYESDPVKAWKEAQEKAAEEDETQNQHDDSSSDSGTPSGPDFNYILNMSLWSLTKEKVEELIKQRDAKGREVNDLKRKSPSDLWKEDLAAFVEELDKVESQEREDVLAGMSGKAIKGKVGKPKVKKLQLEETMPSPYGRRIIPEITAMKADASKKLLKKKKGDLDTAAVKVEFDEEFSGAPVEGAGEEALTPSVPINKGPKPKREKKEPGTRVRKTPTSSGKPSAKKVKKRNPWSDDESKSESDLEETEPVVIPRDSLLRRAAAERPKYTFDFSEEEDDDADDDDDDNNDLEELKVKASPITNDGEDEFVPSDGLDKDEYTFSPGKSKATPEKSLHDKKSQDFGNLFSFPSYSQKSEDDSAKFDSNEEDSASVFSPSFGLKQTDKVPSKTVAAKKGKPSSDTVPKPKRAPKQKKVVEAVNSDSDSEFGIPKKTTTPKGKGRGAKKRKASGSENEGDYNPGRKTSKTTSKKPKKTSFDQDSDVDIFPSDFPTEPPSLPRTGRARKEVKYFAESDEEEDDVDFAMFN

[2] = target: DNA topoisomerase 2-alpha (Homo sapiens) (UniProt P11388); assay: (§1) Inhibition of recombinant human topoisomerase-2alpha expressed in Saccharomyces cerevisiae assessed as increase in single-stranded DNA cleavage at 25 uM using supercoiled pBR322 DNA as substrate incubated for 6 mins measured after 30 mins by ethidium bromide staining based agarose gel electrophoresis method relative to etoposide
DNA topoisomerase 2-alpha (Homo sapiens), sequence (P11388 whole entry): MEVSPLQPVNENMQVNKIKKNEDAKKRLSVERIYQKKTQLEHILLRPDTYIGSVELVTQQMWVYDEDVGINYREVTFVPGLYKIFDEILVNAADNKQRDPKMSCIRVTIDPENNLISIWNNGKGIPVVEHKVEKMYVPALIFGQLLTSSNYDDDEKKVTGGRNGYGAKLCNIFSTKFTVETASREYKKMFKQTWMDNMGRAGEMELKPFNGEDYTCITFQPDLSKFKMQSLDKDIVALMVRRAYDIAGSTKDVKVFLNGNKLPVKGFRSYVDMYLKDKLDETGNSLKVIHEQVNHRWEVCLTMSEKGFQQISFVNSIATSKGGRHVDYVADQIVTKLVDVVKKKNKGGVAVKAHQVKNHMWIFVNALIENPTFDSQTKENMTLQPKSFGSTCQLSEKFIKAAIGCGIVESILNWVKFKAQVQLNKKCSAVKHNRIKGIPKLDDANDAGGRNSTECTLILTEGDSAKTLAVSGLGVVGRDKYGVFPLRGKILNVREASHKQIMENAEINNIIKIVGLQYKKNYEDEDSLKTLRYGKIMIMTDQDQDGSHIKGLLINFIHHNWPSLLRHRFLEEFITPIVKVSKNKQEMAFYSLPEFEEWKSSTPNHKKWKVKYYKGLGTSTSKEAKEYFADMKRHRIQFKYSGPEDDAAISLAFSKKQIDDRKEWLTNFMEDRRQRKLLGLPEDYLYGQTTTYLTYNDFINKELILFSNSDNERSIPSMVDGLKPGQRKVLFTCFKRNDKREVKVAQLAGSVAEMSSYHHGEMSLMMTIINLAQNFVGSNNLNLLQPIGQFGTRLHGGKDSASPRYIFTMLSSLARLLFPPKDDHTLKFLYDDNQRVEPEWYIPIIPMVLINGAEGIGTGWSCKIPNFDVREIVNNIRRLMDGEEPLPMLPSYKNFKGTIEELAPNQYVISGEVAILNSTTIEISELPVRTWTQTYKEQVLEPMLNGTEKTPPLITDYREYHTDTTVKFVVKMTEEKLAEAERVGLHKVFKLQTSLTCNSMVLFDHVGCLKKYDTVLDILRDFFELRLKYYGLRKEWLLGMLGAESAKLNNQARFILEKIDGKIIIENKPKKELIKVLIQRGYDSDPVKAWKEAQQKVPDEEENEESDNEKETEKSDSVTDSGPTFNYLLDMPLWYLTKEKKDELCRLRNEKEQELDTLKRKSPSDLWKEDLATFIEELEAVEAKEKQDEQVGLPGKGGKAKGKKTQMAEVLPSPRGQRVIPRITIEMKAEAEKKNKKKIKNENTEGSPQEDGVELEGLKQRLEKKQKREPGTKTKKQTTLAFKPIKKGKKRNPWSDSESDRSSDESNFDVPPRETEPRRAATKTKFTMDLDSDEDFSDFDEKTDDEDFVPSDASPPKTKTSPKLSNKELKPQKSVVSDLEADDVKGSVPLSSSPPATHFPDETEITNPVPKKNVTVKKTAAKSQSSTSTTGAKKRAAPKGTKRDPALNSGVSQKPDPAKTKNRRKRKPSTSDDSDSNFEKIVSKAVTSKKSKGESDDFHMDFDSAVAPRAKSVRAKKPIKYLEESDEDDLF

[3] = target: DNA topoisomerase 2-beta (Homo sapiens) (UniProt Q02880); assay: (§2) Poison activity at recombinant human topoisomerase-2beta expressed in Saccharomyces cerevisiae assessed as stabilization of DNA-enzyme cleavage complex by measuring concentration required to generate 10% double-stranded DNA breaks using supercoiled pBR322 DNA as substrate incubated for 6 mins measured after 30 mins by ethidium bromide staining based agarose gel electrophoresis method
[4] = target: DNA topoisomerase 2-alpha (Homo sapiens) (UniProt P11388); assay: Poison activity at recombinant human topoisomerase-2alpha expressed in Saccharomyces cerevisiae assessed as inhibition of DNA religation using single-stranded DNA at 25 uM incubated for 6 mins by agarose gel electrophoresis method
[5] = target: DNA topoisomerase 2-beta (Homo sapiens) (UniProt Q02880); assay: as §1, with “topoisomerase-2beta” for “topoisomerase-2alpha”, “double-stranded” for “single-stranded”
[6] = target: DNA topoisomerase 2-beta (Homo sapiens) (UniProt Q02880); assay: as §1, with “topoisomerase-2beta” for “topoisomerase-2alpha”, “total” for “single-stranded”
[7] = target: DNA topoisomerase 2-beta (Homo sapiens) (UniProt Q02880); assay: as §2, with “at 25 uM” for “by measuring concentration required to generate 10% double-stranded DNA breaks”
[8] = target: DNA topoisomerase 2-alpha (Homo sapiens) (UniProt P11388); assay: Inhibition of recombinant human topoisomerase-2alpha expressed in Saccharomyces cerevisiae assessed as stabilization of DNA-enzyme cleavage complex at 25 uM incubated for […] followed by incubation in drug-free buffer by agarose gel electrophoresis method
[9] = target: DNA topoisomerase 2-alpha (Homo sapiens) (UniProt P11388); assay: as §1, with “total” for “single-stranded”
[10] = target: DNA topoisomerase 2-alpha (Homo sapiens) (UniProt P11388); assay: as §2, with “topoisomerase-2alpha” for “topoisomerase-2beta”
[11] = target: DNA topoisomerase 2-alpha (Homo sapiens) (UniProt P11388); assay: as §1, with “double-stranded” for “single-stranded”
[12] = target: DNA topoisomerase 2-beta (Homo sapiens) (UniProt Q02880); assay: Poison activity at recombinant human topoisomerase-2beta expressed in Saccharomyces cerevisiae assessed as inhibition of DNA religation using single-stranded DNA at 25 uM incubated for 6 mins by agarose gel electrophoresis method
[13] = target: DNA topoisomerase 2-alpha (Homo sapiens) (UniProt P11388); assay: Poison activity at recombinant human topoisomerase-2alpha expressed in Saccharomyces cerevisiae assessed as stabilization of DNA-enzyme cleavage complex at 25 uM using supercoiled pBR322 DNA as substrate incubated for 6 mins measured after 30 mins by ethidium bromide staining based agarose gel electrophoresis method
[14] = target: DNA topoisomerase 2-beta (Homo sapiens) (UniProt Q02880); assay: as §1, with “topoisomerase-2beta” for “topoisomerase-2alpha”
[15] = target: DNA topoisomerase 2-beta (Homo sapiens) (UniProt Q02880); assay: Inhibition of recombinant human topoisomerase-2beta expressed in Saccharomyces cerevisiae assessed as stabilization of DNA-enzyme cleavage complex at 50 uM incubated for 6 mins followed by incubation in drug-free buffer by agarose gel electrophoresis method
[16] = target: DNA topoisomerase 2-alpha (Homo sapiens) (UniProt P11388); conditions: 100 uM
Description: Poison activity at recombinant human topoisomerase-2alpha expressed in Saccharomyces cerevisiae assessed as inhibition of DNA religation using single-stranded DNA at 100 uM incubated for 6 mins by agarose gel electrophoresis method

[17] = target: DNA topoisomerase 2-alpha (Homo sapiens) (UniProt P11388); conditions: 100 uM; remark: listed apart in the source
Description: Inhibition of recombinant human topoisomerase-2alpha expressed in Saccharomyces cerevisiae assessed as stabilization of DNA-enzyme cleavage complex at 100 uM incubated for 10 mins followed by incubation in drug-free buffer by agarose gel electrophoresis method

inhibition [1] | fold change (FC) [2] | fold change (FC) [5] | fold change (FC) [6] | inhibition [8] | fold change (FC) [9] | fold change (FC) [11] | fold change (FC) [14] | inhibition [15] | inhibition [16] | inhibition [17] | Structure (SMILES) | Activity [3] [µM] | inhibition [4] | Activity [7] | Activity [10] [µM] | inhibition [12] | Activity [13]
Active | 1.37 | 8.36 | 6.51 | Active | 1.66 | 2.16 | 2.61 | – | – | – | CNCCCNCCCCNCCCNCC(=O)N[C@@H]1c2cc3c(cc2[C@@H](c2cc(OC)c(O)c(OC)c2)[C@H]2C(=O)OC[C@@H]21)OCO3 | 7.5 | Active | inactive | 13.2 | Active | inactive
– | – | – | – | – | – | – | – | Active | Active | Active | COc1cc([C@@H]2c3cc4c(cc3[C@@H](O[C@@H]3O[C@@H]5CO[C@@H](C)O[C@H]5[C@H](O)[C@H]3O)[C@H]3COC(=O)[C@H]23)OCO4)cc(OC)c1O | > 100 | – | – | > 100 | Active | –
Active | 0.87 | 2.9 | 3.13 | Active | 0.88 | 0.9 | 3.63 | – | – | – | COc1cc([C@@H]2c3cc4c(cc3[C@@H](NC(=O)CNCCCOCCCCOCCCN)[C@H]3COC(=O)[C@H]23)OCO4)cc(OC)c1O | 49.9 | Active | inactive | 98.9 | Active | inactive

More lines, now with the values behind:

Structure (SMILES) | inhibition [1] | fold change (FC) [2] | fold change (FC) [5] | fold change (FC) [6] | inhibition [8] | fold change (FC) [9] | fold change (FC) [11] | fold change (FC) [14] | inhibition [15] | inhibition [16] | inhibition [17] | Activity [3] [µM] | inhibition [4] | Activity [7] | Activity [10] [µM] | inhibition [12] | Activity [13]
COc1cc([C@@H]2c3cc4c(cc3[C@@H](NC(=O)CNCCCNCCNCCCN)[C@H]3COC(=O)[C@H]23)OCO4)cc(OC)c1O | Active | 1.06 | 4.66 | 4.54 | Active | 1.38 | 1.93 | 4.27 | – | – | – | 25.3 | Active | inactive | 20.5 | Active | inactive
COc1cc([C@@H]2c3cc4c(cc3[C@@H](NC(=O)CNCCCNCCCNCCCN)[C@H]3COC(=O)[C@H]23)OCO4)cc(OC)c1O | Active | 1.17 | 7.85 | 6.03 | Active | 1.52 | 2.13 | 2.21 | – | – | – | 8.1 | Active | inactive | 12.2 | Active | inactive
COc1cc([C@@H]2c3cc4c(cc3[C@@H](NC(=O)CNCCCNCCCCN)[C@H]3COC(=O)[C@H]23)OCO4)cc(OC)c1O | Active | 1.14 | 7.69 | 6.8 | Active | 1.28 | 1.52 | 4.92 | – | – | – | 11 | Active | inactive | 54.1 | Active | inactive
COc1cc([C@@H]2c3cc4c(cc3[C@@H](NC(=O)CNCCCNCCCCNCCCN)[C@H]3COC(=O)[C@H]23)OCO4)cc(OC)c1O | Active | 0.92 | 10.3 | 7.85 | Active | 1.49 | 2.48 | 2.68 | – | – | – | 4.3 | Active | inactive | 4.8 | Active | inactive
